# From patent publication US20110213000A1, “N-(2-THIAZOLYL)-AMIDE DERIVATIVES FOR THE TREATMENT OF OBESITY, DIABETES AND CARDIOVASCULAR DISEASES” (ZELTIA, S.A., priority 2007, published 2011)
# Test system: adiponectin promoter
# Experiment: Luciferase reporter screening of promoter transcriptional activity in stable C2C12 cell lines
# Assay type: cell-based, mouse
# Settings: for activation ratio: C2C12 stable line, luciferase, vs vehicle; for concentration at which the greatest transactivation was achieved: dose-response curve of the commercial activator on the target promoter
# Description: The following protocol has been followed for the purpose of analyzing the potential therapeutic activity against obesity, type 2 diabetes mellitus and atherosclerosis (ODA metabolic diseases) of the compounds 1-5: • generating cell lines which have stably integrated human promoters of key genes in the development of ODA diseases; • amplifying the human promoter sequence of the target genes starting from commercial human genomic DNA; • cloning the promoter into a suitable vector which allows knowing the transcriptional activity of the promoter sequence, using the luciferase gene as a reporter gene; • generating stable cell lines for each of the promoters cloned into the reporter vectors; • carrying out the screening test with the compounds of the invention on the stable cell lines; • suitably validating the effect obtained with a certain compound which can modify the transcriptional activity of the promoter.
# The selected cell line is C2C12, corresponding to myoblasts from mouse muscle tissue.
# The luciferase activity is measured according to the following protocol: • a) 50000 and […] cells/well (and in duplicate) are seeded in a P24 plate. • b) After approximately 24 hours, the medium is removed from the cells and each well is washed with PBS 1× (because DMEM interferes in the measurement of the activity of the reporter gene) • c) 100 μl of luciferase developing reagent are added in each cell (Bright-Glo™ Luciferase Assay system—Promega). This reagent carries the reporter gene substrate and luminescence is generated as the product of the enzymatic reaction. The cells which have acquired the reporter gene, and therefore the target promoter, will be luminescent upon being in the presence of said substrate. To record the measurement of luciferase activity, the plate is shaken for 30 seconds right after adding the developing reagent and after 2 minutes, the volume is collected and transferred to a 96-well plate (P96), which can be read in an illuminometer. • d) The suitable luminescence program is selected, such that the reading lasts 5 seconds per well, and the arbitrary luminescence units are recorded for each obtained clone or, in other words, for each stable cell line.
# Carrying out the screening test: The clones used in the screening are: C2C12 Adipo (adiponectin promoter), C2C12 UCP3 (UCP3 promoter), C2C12 AdR1 (adiponectin receptor 1 promoter) and C2C12 Nmu (neuromedin promoter).
# Before any screening experiment, the suitable number of cells for carrying out such experiments must first be provided. To that end, 2 T75 are usually seeded (with approximately 1×10^6 cells in each bottle), such that after four days, the cells have reached confluence and are ready for the screening protocol detailed below to be carried out. • 1. Day 1: 30000 cells per well are seeded in white P96 plates; these plates allow amplifying the luminescence signal and improving the reading. The cells are grown in 100 μl of hygromycin-free medium. • 2. Day 2: 24 hours after the seeding, the cells are stimulated with compounds 1-5. […]
# [drawing 16] • ? In the indicated positions, the baseline transcriptional activity of the promoters to be studied is recorded in the presence of the medium in which compounds 1-5 (vehicle) are dissolved. • ? In the indicated positions, the transcriptional activity of the promoters to be studied is recorded in the presence of a known commercial activator of the target promoter. […]
# [1] = 0.5 μM, 48 hours after stimulation
# [2] = 1 μM, 48 hours after stimulation
# [3] = 10 μM, 48 hours after stimulation
# [4] = 25 μM, 48 hours after stimulation
# [5] = 5 μM, 48 hours after stimulation
# [6] = 20 μM, 48 hours after stimulation
structure (smiles),measurement,setting,value
"O=C(Nc1nccs1)c1n[nH]c2ccccc12 [Compound 1, thiazol-2-ylamide compound of 1H-indazole-3-carboxylic acid]",activation ratio,"0.1 μM, 48 hours after stimulation",1.28
same,activation ratio,[1],3.66
same,activation ratio,[2],4.59
same,activation ratio,[3],5.52
same,activation ratio,[4],3.58
same,activation ratio,"50 μM, dose-response curve",2.29
same,activation ratio,"100 μM, dose-response curve",0.71
same,activation ratio,"400 μM, dose-response curve",0.12
"O=C(Nc1nccs1)c1ccccn1 [Compound 3, pyridin-2-carboxylic acid thiazol-2-yl-amide]",activation ratio,[1],1.40
same,activation ratio,[2],1.71
same,activation ratio,[5],3.23
same,activation ratio,[3],3.82
same,activation ratio,[4],3.73
same,activation ratio,"50 μM, dose-response curve",3.20
same,activation ratio,"100 μM, dose-response curve",1.61
same,activation ratio,"200 μM, dose-response curve",0.75
O=c1c(-c2ccc(O)cc2)coc2cc(O)ccc12 [Daidzein],activation ratio,[2],1.68
same,activation ratio,[5],3.03
same,activation ratio,[3],3.76
same,activation ratio,[6],4.04
same,activation ratio,"50 μM, dose-response curve",4.05
same,activation ratio,"100 μM, dose-response curve",3.71
same,concentration at which the greatest transactivation was achieved,,20 µM
O=c1c(-c2ccc(O)cc2)coc2cc(O)cc(O)c12 [Genistein],activation ratio,[2],1.47
same,activation ratio,[5],2.25
same,activation ratio,[3],3.59
same,activation ratio,[6],3.05
same,activation ratio,"50 μM, dose-response curve",1.97
same,activation ratio,"100 μM, dose-response curve",1.75
same,activation ratio,"200 μM, dose-response curve",1.59
same,concentration at which the greatest transactivation was achieved,,20 µM
CN(CCOc1ccc(CC2SC(=O)NC2=O)cc1)c1ccccn1 (centres unmarked) [Rosiglitazone],concentration at which the greatest transactivation was achieved,,20 µM
